# Laboratory results from PubChem BioAssay AID256 (DTP/NCI, 2004).
# Inconclusive results and toxic doses are left out.
# Tested on: CD2F1 mice, L1210 leukemia ip, survival T/C
# Test: NCI In Vivo Anticancer Drug Screen. Data for tumor model L1210 Leukemia (intraperitoneal) in CD2F1 (CDF1) mice
# Settings: endpoint: mean survival time, higher = longer survival
# Method in brief: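 Compound-dosed mice with transplantable tumor versus matched vehicle controls; endpoint ratio T/C reported.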
# [1] = dose: 100.0 mg/kg/injection, schedule: Q04DX002 (ip), vehicle: saline with Tween-80
# [2] = dose: 200.0 mg/kg/injection, schedule: Q04DX002 (ip), vehicle: saline with Tween-80
# [3] = dose: 100.0 mg/kg/injection, schedule: Q01DX001 (ip), vehicle: saline
# [4] = dose: 200.0 mg/kg/injection, schedule: Q01DX001 (ip), vehicle: saline
# [5] = dose: 25.0 mg/kg/injection, schedule: Q01DX009 (ip), vehicle: other
# [6] = dose: 50.0 mg/kg/injection, schedule: Q01DX009 (ip), vehicle: other
# [7] = dose: 100.0 mg/kg/injection, schedule: Q01DX009 (ip), vehicle: other
# [8] = dose: 400.0 mg/kg/injection, schedule: Q04DX002 (ip), vehicle: saline with Tween-80
smiles,measurement,setting,value
CN1C(=O)C(C(O)(c2ccccc2)c2ccccc2)C1c1ccccc1 (stereo unspecified),T/C,"dose: 50.0 mg/kg/injection, schedule: Q04DX002 (ip), vehicle: saline with Tween-80",96 % of control
same,T/C,[1],96 % of control
same,T/C,[2],96 % of control
CN(C)c1ccc(/C=N/N=C(/N)N[N+](=O)[O-])cc1,T/C,[3],94 % of control
same,T/C,[4],97 % of control
O=NN(CCCl)C(=O)Nc1ccc(CCO)cc1,T/C,"dose: 0.31 mg/kg/injection, schedule: Q01DX001 (ip), vehicle: other",103 % of control
same,T/C,"dose: 0.62 mg/kg/injection, schedule: Q01DX001 (ip), vehicle: other",97 % of control
same,T/C,"dose: 1.25 mg/kg/injection, schedule: Q01DX001 (ip), vehicle: other",105 % of control
same,T/C,"dose: 2.03 mg/kg/injection, schedule: Q01DX009 (ip), vehicle: acetone",205 % of control
same,T/C,"dose: 2.5 mg/kg/injection, schedule: Q01DX001 (ip), vehicle: other",120 % of control
same,T/C,"dose: 3.08 mg/kg/injection, schedule: Q01DX009 (ip), vehicle: saline with Tween-80",203 % of control
same,T/C,"dose: 4.62 mg/kg/injection, schedule: Q01DX009 (ip), vehicle: saline with Tween-80",300 % of control
same,T/C,"dose: 9.75 mg/kg/injection, schedule: Q01DX001 (ip), vehicle: other",277 % of control
same,T/C,"dose: 19.5 mg/kg/injection, schedule: Q01DX001 (ip), vehicle: other",361 % of control
same,T/C,"dose: 39.0 mg/kg/injection, schedule: Q01DX001 (ip), vehicle: other",98 % of control
same,T/C,"dose: 100.0 mg/kg/injection, schedule: Q01DX001 (ip), vehicle: carboxymethylcellulose (CMC)",172 % of control
same,T/C,"dose: 200.0 mg/kg/injection, schedule: Q01DX001 (ip), vehicle: carboxymethylcellulose (CMC)",170 % of control
same,T/C,"dose: 400.0 mg/kg/injection, schedule: Q01DX001 (ip), vehicle: carboxymethylcellulose (CMC)",307 % of control
CC(=O)NNC(=O)c1ccccc1CO,T/C,"dose: 12.5 mg/kg/injection, schedule: Q01DX009 (ip), vehicle: other",89 % of control
same,T/C,[5],90 % of control
same,T/C,[6],97 % of control
same,T/C,[7],94 % of control
same,T/C,"dose: 200.0 mg/kg/injection, schedule: Q01DX009 (ip), vehicle: other",101 % of control
Nc1ccc2ncccc2c1,T/C,[5],93 % of control
same,T/C,[6],95 % of control
same,T/C,[7],91 % of control
CC(C)=CC(O)CC(O)(C(F)(F)F)C(F)(F)F (stereo unspecified),T/C,"dose: 100.0 mg/kg/injection, schedule: Q01DX001 (ip), vehicle: Klucel (hydroxypropylcellulose) (HPC)",94 % of control
same,T/C,[1],94 % of control
same,T/C,"dose: 200.0 mg/kg/injection, schedule: Q01DX001 (ip), vehicle: Klucel (hydroxypropylcellulose) (HPC)",97 % of control
same,T/C,[2],94 % of control
same,T/C,"dose: 400.0 mg/kg/injection, schedule: Q01DX001 (ip), vehicle: Klucel (hydroxypropylcellulose) (HPC)",100 % of control
same,T/C,[8],90 % of control
CC1=C(C)C(=O)C(CC2=C(C)C(=O)C(C)=C(C)C2=O)=C(C)C1=O,T/C,[1],102 % of control
same,T/C,[2],91 % of control
same,T/C,[8],109 % of control
C[C@@H]1C[C@H]2CC[C@H](O2)[C@H](C)C(=O)O[C@@H](C)C[C@@H]2CC[C@@H](O2)[C@@H](C)C(=O)O[C@H](C)C[C@H]2CC[C@H](O2)[C@H](C)C(=O)O[C@@H](C)C[C@@H]2CC[C@@H](O2)[C@@H](C)C(=O)O1,T/C,"dose: 8.0 mg/kg/injection, schedule: Q01DX008 (iv), vehicle: saline",98 % of control
same,T/C,"dose: 16.0 mg/kg/injection, schedule: Q01DX008 (iv), vehicle: saline",98 % of control
same,T/C,"dose: 32.0 mg/kg/injection, schedule: Q01DX008 (iv), vehicle: saline",95 % of control
O=C(O)COc1cccc(OCC(=O)O)c1,T/C,"dose: 100.0 mg/kg/injection, schedule: Q04DX003 (ip), vehicle: saline with Tween-80",100 % of control
same,T/C,"dose: 100.0 mg/kg/injection, schedule: Q04DX003 (ip), vehicle: saline",96 % of control
same,T/C,"dose: 200.0 mg/kg/injection, schedule: Q04DX003 (ip), vehicle: saline with Tween-80",91 % of control
same,T/C,"dose: 200.0 mg/kg/injection, schedule: Q04DX003 (ip), vehicle: saline",94 % of control
same,T/C,"dose: 400.0 mg/kg/injection, schedule: Q04DX003 (ip), vehicle: saline",100 % of control
Cc1ccc(SSc2ccc(C)cc2)cc1,T/C,[3],100 % of control
same,T/C,[4],100 % of control
same,T/C,"dose: 400.0 mg/kg/injection, schedule: Q01DX001 (ip), vehicle: saline",91 % of control
